Patent publication US20170281710A1, “USE OF INHIBITORS OF BINDING BETWEEN A PAR-1 RECEPTOR AND ITS LIGANDS FOR THE TREATMENT OF GLIOMA” (University of Rochester, priority 2013, published 2017)
Entries after “also recorded” stand apart in the source; their conditions may differ.

Experiments:
[1] = tested on: angiogenesis; conditions: literature; cited from earlier work
[2] = tested on: several human and mouse cell lines; conditions: literature; cited from earlier work
[3] = tested on: A2B5+ glioma TPCs (GCL) isolated from GBM-derived cell lines; assay: in vitro expansion of A2B5+ glioma TPCs (GCL), cell count after escalating doses; type: cell-based, human; conditions: for concentration at which a significant decrease in number of A2B5+ TPCs was observed: escalating doses, vs vehicle; for effect on growth / number (in vitro expansion) of A2B5+ glioma TPCs: serum-free media with FGF, EGF, PDGF, 4 days after administration, vs DMSO vehicle
Method: After dissociation, unsorted and A2B5 selected primary cells derived from tumor samples were seeded in a 6 well cell suspension plate at 100,000-200,000 cells/ml in DMEM/F12/N1 media containing FGF, EGF and PDGF (20 ng/ml) as previously described (Nunes et al., “Identification and Isolation of Multipotential Neural Progenitor Cells from the Subcortical White Matter of the Adult Human Brain,” Nat Med 9:439-447 (2003), which is hereby incorporated by reference in their entirety). Growth factors and media were renewed 3 times per week. […] The cells were tumorigenic in vivo after transplantation into the brains of immunodeficient mice, in which they generated tumors that recapitulated the histological and phenotypic features of the parental GBM.
(§1) Dabigatran etexilate (Pradaxa) was obtained as 150 mg capsules from Boehringer Ingelheim (Ingelheim, Germany) for in vivo experiments. Each capsule was freshly dissolved in 4 ml of acidic water to yield 37.5 mg/ml. Dabigatran etexilate was dosed depending of the body weight of the mouse, twice a day, using oral gavage. For in vitro analysis, the chemical compound dabigatran etexilate (BIER-1048) was purchased from Cedarlane USA (S2154-5 mg) and dissolved in dimethylsulfoxide (DMSO) following manufacturer's instructions.
(§2) The selective PAR-1 antagonist SCH79797 was purchased from Tocris Bioscience (Ellisville, Mo., USA) and dissolved in dimethylsulfoxide (DMSO) following manufacturer's instructions. The selective oral PAR-1 inhibitor SCH 530348 (Vorapaxar) was purchased from Axon medchem (Axon 1755) and reconstituted following manufacturer's instructions.
(§3) The various physiological and pathophysiological effects exerted by PAR-1 activation have led to the development of multiple selective PAR-1 antagonists over the years (Garcia-Lopez et al., “Thrombin-Activated Receptors: Promising Targets for Cancer Therapy?” Curr Med Chem 17:109-128 (2010), which is hereby incorporated by reference in its entirety). […] On that basis, it was further asked whether pharmacological inhibition of PAR-1 can slow the growth of glioma cells and A2B5^+ TPCs. Adherent glioma cells grown in 10% Serum (U87, U251) and A2B5^+ TPCs derived from primary GBM cell lines cultured in SFM were subjected to escalating doses of the PAR-1 antagonists SCH-79797.
(§4) Indeed, SCH-530348 represents currently the most advanced and orally available specific PAR-1 antagonist, and has been evaluated in two large phase III clinical trials in patients with cardiovascular disease. […] To examine its effect on glioma cells and TPCs, SCH-530348 was administrated with escalating doses to glioma cells following the same paradigm previously described. […] Importantly, normal adult astrocytes were not affected by SCH-530348 administration (FIG. 6C).
(§5) Given the availability of already approved and relatively safe drugs by which the thrombin may be antagonized, the effect of pharmacological inhibition of thrombin using the oral inhibitor dabigatran etexilate (dabigatran) in vitro was next examined. Dabigatran (marketed as Pradaxa) is an oral inhibitor of thrombin, approved for use in patients with or at risk of thrombotic disorders (Lee and Ansell, “Direct Thrombin Inhibitors,” Br J Clin Pharmacol 72:581-592 (2011); Stangier, “Clinical Pharmacokinetics and Pharmacodynamics of the Oral Direct Thrombin Inhibitor Dabigatran Etexilate,” Clin Pharmacokinet 47:285-295 (2008), which are hereby incorporated by reference in their entirety). […] To examine whether dabigatran treatment might suppress the growth of glial neoplasms, glioma cells and TPCs were treated with escalating doses of dabigatran and counted 4 days after drug administration.

[4] = tested on: adherent glioma cells (U87, U251); assay: in vitro expansion of adherent glioma cells cultured with 10% serum; type: cell-based, human; conditions: for effect on growth / number of adherent glioma cells (U87, U251): 4 days after administration, vs DMSO vehicle; for concentration at which a significant decrease in number of adherent glioma cells was observed: escalating doses
Method: as §1, §2, §3, §4, §5

[5] = tested on: normal astrocytes derived from the adult human brain; assay: growth of normal adult astrocytes in vitro; type: cell-based; conditions: 4 days after administration
[6] = tested on: normal astrocytes derived from the fetal human brain; assay: growth of normal fetal astrocytes in vitro; type: cell-based; conditions: for effect on growth of normal fetal astrocytes / concentrations at which growth of normal fetal astrocytes is slightly decreased: 4 days after administration
[7] = stable patients with a history of myocardial infarction; literature; cited from earlier work
[8] = literature; cited from earlier work
[9] = tested on: breast carcinoma cells; conditions: literature; cited from earlier work
[10] = tested on: A2B5+ glioma TPCs (GCL) subcutaneous xenograft; assay: subcutaneous heterotopic A2B5+ glioma TPC xenograft, tumor volume; type: in vivo, immunodeficient NOG mice; conditions: 37.5 mg/kg twice daily, oral gavage, starting 11 days post-subcutaneous injection, NOG mice
Method: as §1
Glioma cells and/or A2B5^+ TPCs (1-4E^+06 cells/animal) were collected, resuspended in 75 μl of media, and mixed (1:1) with Matrigel (9.8 mg/ml), prior to subcutaneous injection (150 μl, final volume) into the flanks of immunodeficient NOG mice (5-8 weeks) (1-4E^+06 cells/animal). Subcutaneous tumor growth was measured every other day morphometrically using vernier calipers, and tumor volumes were estimated according to the formula a^2b/2, where a and b are the shorter and longer diameters of the tumor, respectively. […] The remaining mice were gavaged at the same times with vehicle control (acidic water). […]
To translate these findings into a clinically relevant approach, the anti-tumor activity of dabigatran was further evaluated in vivo. […] Tumor volume was then measured every other day using vernier calipers. […]

SMILES: CC(C)c1ccc(Cn2ccc3c4c(N)nc(NC5CC5)nc4ccc32)cc1 [SCH79797, N3-Cyclopropyl-7-[[4-(1-Methylethyl)Phenyl]Methyl]-7H-Pyrrolo[3,2-f]Quinazoline-1,3-Diamine]
- anti-angiogenic activity in vivo [1]: potent anti-angiogenic in vivo
- effect on proliferation, migration and growth of several human and mouse cell lines [2]: showed anti-proliferative effects, blocked cell migration and growth
- concentration at which a significant decrease in number of A2B5+ TPCs was observed [3]: ≥ 0.1 µM
- effect on growth / number (in vitro expansion) of A2B5+ glioma TPCs [3]: potent inhibitors of glioma growth in vitro; also recorded: suppressed the growth and proliferation of glioma TPCs in vitro; also recorded: significantly decreases the number of GCL and glioma cells in a dose dependent manner
- effect on growth / number (in vitro expansion) of A2B5+ glioma TPCs ([3]; listed as SCH-79797): significant concentration dependent inhibition of cell growth
- effect on growth / number of adherent glioma cells (U87, U251) [4]: significantly decreases the number of GCL and glioma cells in a dose dependent manner
- effect on growth / number of adherent glioma cells (U87, U251) ([4]; listed as SCH-79797): significant concentration dependent inhibition of cell growth
- concentration at which a significant decrease in number of adherent glioma cells was observed [4]: ≥ 0.1 µM
- effect on growth of normal adult astrocytes [5]: did not affect the growth of normal fetal and adult astrocytes
- effect on growth of normal adult astrocytes ([5]; listed as SCH-79797): no significant differences
- effect on growth of normal fetal astrocytes [6]: did not affect the growth of normal fetal and adult astrocytes
- effect on growth of normal fetal astrocytes ([6]; listed as SCH-79797): able to slow the growth of normal fetal astrocytes
- concentration at which a significant decrease in number of fetal astrocytes was observed ([6]; escalating doses): ≥ 0.5 µM

SMILES: CCOC(=O)N[C@@H]1CC[C@@H]2[C@@H](C1)C[C@H]1C(=O)O[C@H](C)[C@H]1[C@H]2/C=C/c1ccc(-c2cccc(F)c2)cn1 [SCH530348, Vorapaxar]
- major cardiovascular thrombotic events [7]: significantly reduced major cardiovascular thrombotic events
- oral bioavailability [8]: excellent
- safety [8]: excellent
- concentration at which a significant decrease in number of A2B5+ TPCs was observed [3]: ≥ 5 µM
- effect on growth / number (in vitro expansion) of A2B5+ glioma TPCs [3]: potent inhibitors of glioma growth in vitro; also recorded: suppressed the growth and proliferation of glioma TPCs in vitro; also recorded: significantly decreases the number of GCL and glioma cells in a dose dependent manner
- effect on growth / number (in vitro expansion) of A2B5+ glioma TPCs ([3]; listed as SCH-530348): significantly reduced the growth
- effect on growth / number of adherent glioma cells (U87, U251) [4]: significantly decreases the number of GCL and glioma cells in a dose dependent manner
- effect on growth / number of adherent glioma cells (U87, U251) ([4]; listed as SCH-530348): significant decrease in the number of glioma cells
- concentration at which a significant decrease in number of adherent glioma cells was observed [4]: 25 µM
- effect on growth of normal adult astrocytes [5]: did not affect the growth of normal adult astrocytes
- effect on growth of normal adult astrocytes ([5]; listed as SCH-530348): not affected
- concentrations at which growth of normal fetal astrocytes is slightly decreased [6]: > 0.5 µM
- effect on growth of normal fetal astrocytes [6]: slightly decreases the growth of normal fetal astrocytes

SMILES: CCCCCCOC(=O)NC(=N)c1ccc(NCc2nc3cc(C(=O)N(CCC(=O)OCC)c4ccccn4)ccc3n2C)cc1 [dabigatran etexilate]
- breast cancer progression [9]: reduce breast cancer progression
- invasiveness of breast carcinoma cells in mice [9]: inhibits the invasiveness of breast carcinoma cells
- effect on tumor volumes compared to vehicle controls [10]: significant reduction in tumor volumes; also recorded: significantly suppressed glioma growth; also recorded: significantly reduced tumor volumes
- effect on tumor volumes compared to vehicle controls ([10]; listed as Pradaxa): significantly reduce the tumor volumes
- concentration at which a significant decrease in number of A2B5+ TPCs was observed [3]: 5 µM
- effect on growth / number (in vitro expansion) of A2B5+ glioma TPCs [3]: suppressed the growth and proliferation of glioma TPCs in vitro
- effect on growth / number (in vitro expansion) of A2B5+ glioma TPCs ([3]; listed as Dabigatran etexilate): significantly decreases the number of GCL and glioma cells in a dose dependent manner
- effect on growth / number (in vitro expansion) of A2B5+ glioma TPCs ([3]; listed as dabigatran): decreased in vitro expansion in a dose dependent manner; also recorded: potent inhibitors of glioma growth in vitro
- effect on growth / number of adherent glioma cells (U87, U251) ([4]; listed as Dabigatran etexilate): significantly decreases the number of GCL and glioma cells in a dose dependent manner
- effect on growth / number of adherent glioma cells (U87, U251) ([4]; listed as dabigatran): decreased in vitro expansion in a dose dependent manner
- concentration at which a significant decrease in number of adherent glioma cells was observed [4]: ≥ 10 µM
- effect on growth of normal adult astrocytes ([5]; listed as Dabigatran etexilate): did not affect the growth of normal adult astrocytes
- effect on growth of normal adult astrocytes ([5]; listed as dabigatran): not significantly affected
- concentrations at which growth of normal fetal astrocytes is slightly decreased [6]: > 0.5 µM
- effect on growth of normal fetal astrocytes ([6]; listed as Dabigatran etexilate): slightly decreases the growth of normal fetal astrocytes
- effect on growth of normal fetal astrocytes ([6]; listed as dabigatran): not significantly affected
